Measured values published in US20220162215A1, “COMPOSITIONS AND METHODS OF USING THE SAME FOR TREATMENT OF NEURODEGENERATIVE AND MITOCHONDRIAL DISEASE” (MITOKININ, INC., priority 2019, published 2022).
Entries after “also recorded” stand apart in the source; their conditions may differ. Where two headings read alike, the source gives them in different places.

Columns and labels:
[1] = In vivo summary, pharmacokinetics, mouse
Procedure: Referring to Tables 8A-C below, an in vivo summary of EP-0035985 IV at 1 mg/kg (8A), PO 10 mg/kg (8B), and a tissue distribution, mouse (8C) is shown below.

PINK1/parkin pathway = assay: Parkin recruitment to mitochondria, live cell imaging; format: cell-based, human; settings: PINK1wt vs PINK1ko cells, FIG. 18
Procedure: When the PINK1/parkin pathway is activated by FCCP, PINK1 is stabilized on the mitochondrial membrane, and its activity leads to the recruitment of parkin to the mitochondria (Narendra et al., PLoS Biol 2010; Narendra et al., J. Cell Biol 2008; Vives-Bauza et al., PNAS 2009). The aim of this assay is to test how MTK compounds affect the speed of parkin recruitment to the mitochondria. Briefly, HeLa-MKYP cells were plated at 7,000 cells/well in 96-well plates along with compounds at various concentrations. Following 16 hours of incubation, cells were treated in phenol-free media with 1 μM FCCP/oligomycin (F/O) along with compounds at various doses for 2-3 hours. Immediately following addition of new media, the cell treatment plate was transferred to a CO2 and temperature-regulated chamber in a high-content imaging microscope [Molecular Devices], to acquire images from live cells at regular intervals during the treatment timecourse. Appropriate controls were included on each plate to obtain a maximum signal from treatment with 2 μM F/O, or a minimum signal from cells treated with no F/O with DMSO for each cell type tested (HeLa-MKYP WT or PINK1^KO). Images were analyzed using MetaExpress 6 software package, and automatically processed after setting thresholds to define overlap between the YFP-parkin signal and red mitochondrial signal based on controls. […]

dOTC = assay: Ornithine carbamoyltransferase (dOTC) assay; format: cell-based
Description: The expression of a deletion mutant of dOTC yields Triton X-100 insoluble protein aggregates in the mitochondrial matrix. This misfolded protein expression is capable of recruiting PINK1/Parkin to mitochondria without depolarizing the inner mitochondrial membrane. Thus, without wishing to be bound by theory, it may represent a more physiological mechanism of PINK1 stabilization.
Here, HeLa cells stably expressing YFP parkin, containing doxycycline inducible expression of dOTC, were obtained. The cells were seeded at 20000 cells/well plus doxycycline (1 μg/mL) plus MTK on a 96-well plate. On Day 3, the cells were fixed and permeabilized and bound with OTC antibody. DAPI and cell mask were added. There was no wash off of dox. The results were imaged at 40×, non-confocal. 85-600 cells were analyzed per well. Each condition had 1-3 wells.

[2] = Visual inspection of crystallization; format: physicochemical; set-up: key: 1: yes crystals; 0: no crystals; settings: Tables 5A-5D
Procedure: Briefly, the Hela MKYP (Mito-Keima/YFP-Parkin) cells were seeded at 10K cells/well. EP/MTK compounds were added at seeding (cells were still in suspension). The cells were incubated with the EP/MTK compounds for 16 hours, then 1 μM FCCP/oligomycin was added for 6 hours. Prior to harvesting, cells were scored by eye under 20× magnification for the presence or absence of crystalline or aggregated compound, or round cells.

pS129 α-synuclein = pS129 α-synuclein in human iPSC derived neurons; format: cell-based; settings: FIG. 21
mitotoxicity = assay: Mitotox safety margin (therapeutic window); format: cell-based
PINK1 = target: T1, PINK1 (Homo sapiens, UniProt Q9BXM7); assay: PINK1 phosphorylation in HeLa cells (PhosTag gel electrophoresis); format: cell-based
T1 construct: for each cell type tested (HeLa-MKYP WT or PINK1^KO); endogenous in cells; host or cells: HeLa-MKYP (WT) / HeLa cells
T1 sequence (Q9BXM7 78-581): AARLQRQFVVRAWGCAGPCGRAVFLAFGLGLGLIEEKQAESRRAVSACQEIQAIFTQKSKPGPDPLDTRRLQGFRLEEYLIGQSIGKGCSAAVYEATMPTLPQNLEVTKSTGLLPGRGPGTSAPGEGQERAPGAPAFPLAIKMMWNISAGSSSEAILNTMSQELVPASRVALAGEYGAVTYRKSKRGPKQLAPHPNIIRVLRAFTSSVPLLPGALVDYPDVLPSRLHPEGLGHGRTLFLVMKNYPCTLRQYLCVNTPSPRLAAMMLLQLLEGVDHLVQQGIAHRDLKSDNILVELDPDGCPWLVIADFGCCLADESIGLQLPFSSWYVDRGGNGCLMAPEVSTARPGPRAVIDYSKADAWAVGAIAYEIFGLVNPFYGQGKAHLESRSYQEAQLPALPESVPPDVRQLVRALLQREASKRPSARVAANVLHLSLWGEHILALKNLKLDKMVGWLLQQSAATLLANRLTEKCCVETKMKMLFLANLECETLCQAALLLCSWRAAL

GDF15 = assay: Cisplatin mouse model of mitochondrial dysfunction (GDF15 qPCR, kidney); format: in vivo, mice; settings: oral dosing; i.p. cisplatin; FIG. 34
Description: Cisplatin is a chemotherapeutic agent reported in the literature to induce mitochondrial damage (see: Yang, Z., et al. “Cisplatin Preferentially Binds Mitochondrial DNA and Voltage-Dependent Anion Channel Protein in the Mitochondrial Membrane of Head and Neck Squamous Cell Carcinoma: Possible Role in Apoptosis.” Clinical Cancer Research 12, no. 19 (2006), 5817-5825). Growth and Differentiation Factor 15 (GDF15) is an established biomarker of mitochondrial disease and certain neurodegenerative diseases (see: Montero, R, et al. “GDF-15 Is Elevated in Children with Mitochondrial Diseases and Is Induced by Mitochondrial Dysfunction.” PLOS ONE 11, no. 2 (2016); Nohara, S, et al. “GDF-15, a mitochondrial disease biomarker, is associated with the severity of multiple sclerosis”, Journal of Neurological Sciences, Vol 405 (2019)). Briefly, mice approximately 10 weeks in age were challenged with a single intraperitoneal dose of cisplatin (10 mg/kg), then treated daily via oral gavage with either compound 35985 at various doses or vehicle control. On day 7, the animals were sacrificed. Kidneys were removed and homogenized. Following published methods, qPCR was performed on the kidney samples to determine expression levels of GDF15.

[3] = In vivo pharmacokinetic properties (Table 7)
[4] = three days of treatment with DOX and 50 μM

FC(F)(F)c1cc2c(NC3CCCc4ccccc43)ncnc2[nH]1 (stereo not drawn) [Compound 15]
AUCExtr ([1]; IV at 1 mg/kg, Table 8A): 1.1% | AUClast ([1]; IV at 1 mg/kg, Table 8A): 481.3 ng·h/mL | C0 ([1]; IV at 1 mg/kg, Table 8A): 1569.0 ng/mL | CL ([1]; IV at 1 mg/kg, Table 8A): 34.3 mL/min/kg | MRTlnf ([1]; IV at 1 mg/kg, Table 8A): 0.7 h | T1/2 ([1]; IV at 1 mg/kg, Table 8A): 1.4 h | Vss ([1]; IV at 1 mg/kg, Table 8A): 1.5 L/kg | Vz ([1]; IV at 1 mg/kg, Table 8A): 4.0 L/kg | AUClast ([1]; PO 10 mg/kg, Table 8B): 357.3 ng·h/mL | AUClnf ([1]; PO 10 mg/kg, Table 8B): 803.3 ng·h/mL | MRTlnf ([1]; PO 10 mg/kg, Table 8B): 17.4 h | Vss ([1]; PO 10 mg/kg, Table 8B): 2.5 L/kg | AUC ([1]; in vivo, IV at 1 mg/kg, Table 8A): 487 ng·h/mL | C0 ([1]; in vivo, PO 10 mg/kg, Table 8B, read-out: C0): 0.5 ng/mL | rate of Parkin recruitment (PINK1/parkin pathway): increases the rate of Parkin recruitment in PINK1^wt but not PINK1^ko cells | dOTC proteins / delta OTC aggregates (dOTC; induced by doxycycline, FIG. 16, FIG. 20, listed as EP-0035985): able to reduce the accumulated dOTC proteins; also recorded: reduces delta OTC aggregates from mitochondria | OTC signal (dOTC; [4]): very effective at reducing OTC signal | cell counts (dOTC; [4]): cell counts were lower | Visual inspection of crystallization ([2]; 1.6 μM): 0 | Visual inspection of crystallization ([2]; 3.1 μM): 0 | Visual inspection of crystallization ([2]; 6.3 μM): 0 | Visual inspection of crystallization ([2]; 12.5 μM): 0 | Visual inspection of crystallization ([2]; 25.0 μM): 0 | Visual inspection of crystallization ([2]; 50.0 μM): 0 | pS129 α-synuclein (pS129 α-synuclein): significantly reduces pS129 α-synuclein | Mitotox safety margin (Therapeutic window) (mitotoxicity; class of the Ratio): ++++ (ratio 30<) | Ratio** (mitotoxicity; highest concentration with no observable mitotoxicity (μM) divided by the EC50 (μM) of the compound): 40.02 | pS65 Ubiquitin (PINK1; 0.5, 1 μM FCCP, FIG. 33C): significant increase in pS65 Ubiquitin at 0.5, 1 μM FCCP | levels of PINK1phospho (PINK1; HeLa cells, 2.8 μM compound and 0.5, 1.0, or 2.0 μM FCCP, FIG. 33A): significantly increases the levels of PINK1phospho | expression of mitochondrial disease marker GDF15 (GDF15): reduces expression of mitochondrial disease marker GDF15 | AUC (obs) ([3]; IV (1 mg/kg)): 1.4 µM·h | Cmax ([3]; IV (1 mg/kg)): 1450 nM | Cmax ([3]; PO (10 mg/kg)): 1080 nM | F % ([3]; PO (10 mg/kg)): 17.4% | AUC (obs) ([3]; PO (50 mg/kg)): 27.4 µM·h | Cmax ([3]; PO (50 mg/kg)): 9800 nM | F % ([3]; PO (50 mg/kg)): 37.9% | T1/2 ([3]; PO (50 mg/kg)): 3.9 h | bioavailability ([3]; in vivo dosing, FIG. 23 and Table 7): good bioavailability | AUC(0-inf) ([3]; mouse, in vivo, IV (1 mg/kg)): 1.5 µM·h | half-life ([3]; mouse, in vivo, IV (1 mg/kg)): 1.4 h | AUC ([3]; mouse, in vivo, PO (10 mg/kg)): 2.4 µM·h | AUC(0-inf) ([3]; mouse, in vivo, PO (10 mg/kg)): 2.6 µM·h | half-life ([3]; mouse, in vivo, PO (10 mg/kg)): 2 h | AUC(0-inf) ([3]; mouse, in vivo, PO (50 mg/kg)): 35.5 µM·h
